Assay results: US20260256728A1, “TREATMENT FOR ASYMPTOMATIC STARGARDT DISEASE PATIENTS” (priority 2024, published 2026)
Entries after “also recorded” stand apart in the source; their conditions may differ.

Tested on: atrophic retinal lesions in Stargardt disease patients
Assay: TEASE-1 growth rate of atrophic retinal lesions by fundus autofluorescence imaging
Assay type: in vivo, human
Set-up: relative slower growth rate of atrophic retinal lesions versus control / Percentage Slowing of Atrophic Retinal Lesion Growth Rate: concentration or dose not given beside the values
Method: The Tolerability and Effects of gildeuretinol acetate in Stargardt Disease (Clinical trial group 1, also known as TEASE-1) was a 24-month, multicenter, double-masked, placebo-controlled trial designed to evaluate the efficacy and safety of daily oral gildeuretinol acetate in slowing the growth of atrophic retinal lesions in Stargardt disease patients. The trial was conducted at multiple sites in the United States (NCT02402660).
Patients 12 years or older, clinically diagnosed with Stargardt disease, with at least one ABCA4 mutation, at least one eye presenting with well-demarcated areas of reduced fundus autofluorescence including retinal atrophic lesions, and with any visual acuity, were enrolled.
Patients were randomized to gildeuretinol acetate 14 mg capsules, gildeuretinol acetate 24 mg capsules, or placebo capsules, to be taken once daily for one year. After one year, 50% of randomly selected patients receiving placebo were crossed over in a 1:1 ratio to gildeuretinol acetate 14 mg capsules or gildeuretinol acetate 24 mg capsules for a second year.
Deidentified retinal images of patients not enrolled in the trial were included as a natural history cohort. This natural history cohort comprised patients diagnosed with Stargardt disease of any age, with two or more longitudinal fundus autofluorescence images taken at least four months apart over a maximum period of 2.5 years.
[…] retinal imaging comparing gildeuretinol acetate versus the untreated arm ([…]). Only well-delineated and homogeneous retinal atrophic lesions ≥0.2 mm^2 with a summed area ≥0.5 mm^2 were included in the primary analysis.
The primary endpoint analysis used a linear mixed-effect model (LMEM) with repeated measures, conferring a higher power to detect smaller effects. All observed data, including both eyes, were utilized. Treatment duration was computed as a continuous measure for each visit based on years since randomization. Adjustments for baseline retinal atrophy used the baseline atrophic retinal lesion size as a fixed effect in the LMEM. Additional fixed effects included treatment arm, treatment duration, and interaction between the treatment arm and treatment duration. Random effects included patient, eye, grader to adjust for correlation between eyes within a patient, graders' assessment of an eye, and observations of the same eye over time. A random effect slope term was added to the effect of treatment duration. Patients who crossed over to gildeuretinol acetate after year one were included in the untreated arm from baseline to year one, then in the gildeuretinol acetate arm from […] upon crossing over to gildeuretinol acetate. The full analysis set (FAS) comprised all randomized patients who received at least one dose of the study drug.
[…] All available data between 0 and 24 months was used to compute the slope of each segment. The primary efficacy endpoint was the slope of the second segment. No constraints were imposed on the Y-intercept. All growth rates were calculated on a per-year basis.
No imputations were made for missing data because the LMEM yields valid inferences under the assumption of a missing-at-random mechanism. The two-sided P-value of the primary efficacy endpoint was calculated using Kenward-Roger's method for handling denominator degrees of freedom and small samples. The goodness of fit of the linear mixed-effect model was provided as R-squared (R^2). Analyses were conducted in R (R Core Team, 2020). Prespecified, unadjusted sensitivity analyses of the primary efficacy endpoint included growth rates of untransformed areas of retinal atrophy and growth rates using a single-slope from baseline until the last available visit. Post-hoc unadjusted analyses were performed to evaluate the potential contribution of patient characteristics.

SMILES: [2H]C([2H])([2H])C(/C=C/C=C(C)/C=C/C1=C(C)CCCC1(C)C)=C\COC(C)=O [gildeuretinol acetate]
- growth rate of atrophic retinal lesions (square root area) (14 to 24 mg daily, slope 6 to 24 months, 34 patients): 0.19 mm/year
- relative slower growth rate of atrophic retinal lesions versus control (P<0.001, R^2=0.9996): 21%
- difference in growth rate of atrophic retinal lesions versus control (control 0.24 mm/year (placebo + natural history), 95% CI 0.03 to 0.07): 0.05 mm/year
- prespecified primary efficacy endpoint (mean growth rate of atrophic retinal lesions vs placebo and natural history) (in vivo): met its prespecified primary efficacy endpoint
- effect on expansion of retinal atrophic lesions / retinal degeneration (symptomatic Stargardt disease patients, once daily up to 24 months): slowed the expansion of retinal atrophic lesions; also recorded: slows retinal degeneration
